Data as given in PMC12808100, “The non-catalytic DNA polymerase ε subunit is an NPF motif recognition protein” (Nature Communications, 2025).

Molecular target: His6-avi-MBP-tagged POLE2
Assay: Single-point nHU-MS with recombinant His6-avi-MBP-POLE2 bait, Jurkat extract
Assay type: binding, human
Conditions: significant apparent affinity of endogenous prey protein for POLE2 bait; single-point nHU-MS; Figure S11
Text: So far, our study only focused on a few hand-picked NPF motifs and studied them as short synthetic peptides. However, many other proteins may be present in the proteome that could bind to POLE2 and their putative NPF motifs are embedded in their natural structures that can greatly affect their binding properties. To investigate interactions between POLE2 and intact, full length proteins proteome-wide, we used nHU-MS experiments with recombinant His6-avi-MBP-tagged POLE2 as bait and purified His6-avi-MBP as a control. Even though we are aware that this recombinant POLE2 may bind to NPF motifs with a somewhat altered affinity, we assumed that this would affect all NPF motif-mediated interactions equally, allowing an unbiased affinity ranking of all identified partners. Single point nHU measurements were performed at 26 μM POLE2 concentration and the recovered supernatant was measured by label free proteomic MS measurements (Fig. 3A, Supplementary Figs. 8A, 9, Supplementary Data 1).
Single-point nHU experiments with protein baits were carried out nearly identically with two key modifications. First, the resin saturation step was carried out by mixing 50 μl streptavidin resin with 0.5−1 ml 50 μM biotinylated protein solution and the mixture was incubated for 1.5 h at 4 °C with constant agitation. Second, instead of using estimated bait concentrations, we measured it experimentally. An extra aliquot of resin stock was prepared alongside the nHU samples that were identically processed that were used to eluate the immobilized proteins under harsh conditions, in order to experimentally quantify the Cbait by using densitometry of Coomassie stained SDS-PAGE that included a protein calibration series. For this, 50 μl bait-saturated resin aliquots were mixed with 200 μl 4x Laemmli Sample Buffer (120 mM Tris-HCl pH 7, 8% SDS, 100 mM DTT, 32% glycerol, 0.004% bromphenol blue, 1% β-mercaptoethanol), instead of cell extract. After 15 min incubation at 95 °C, these samples were analyzed by SDS-PAGE using protein calibration standard, made from recombinant MBP. Densitometry was carried out after Coomassie staining on raw Tif images by using Fiji ImageJ 1.53c and experimental bait concentration were determined by adjusting for molecular weight differences between MBP and MBP-POLE2 constructs.
Samples were digested overnight at 37 °C.

Substance	pKapp_sign
NSVD [GYS1]	4.403
KSVD [MYCBP2]	4.444
HARISSTSHT [TRIP11, endogenous full length prey protein]	4.056
TSSTPE [AGFG1, endogenous full length prey protein]	4.872
